Drawing on patent publication US20250066363A1, “Bicyclic DGK Inhibitors” (Incyte Corporation, priority 2023, published 2025), this text covers IC50 for 23 compounds.

Molecules are shown by their SMILES. pIC50: −log10 of the molar value. Some results are limits rather than exact numbers.

The target in one assay is DGKα (Homo sapiens (Human), UniProt P23743). Description: In vitro DGKα inhibition assay (ADP-Glo). In kind it is biochemical. To be noted: first column of Table A; His-tagged human recombinant DGKα 0.1 nM, 50 μM ATP, 20 μM DLG.
Another assay has as its target DGKζ (Homo sapiens (Human), UniProt Q13574). The assay is described as follows: In vitro DGKζ inhibition assay (ADP-Glo). In kind it is biochemical. To be noted: second column of Table A, head printed DGKα, presumably DGKζ; His-tagged human recombinant DGKζ 0.4 nM, 30 μM ATP, 20 μM DLG.

Sequence of DGKζ (Q13574 whole entry): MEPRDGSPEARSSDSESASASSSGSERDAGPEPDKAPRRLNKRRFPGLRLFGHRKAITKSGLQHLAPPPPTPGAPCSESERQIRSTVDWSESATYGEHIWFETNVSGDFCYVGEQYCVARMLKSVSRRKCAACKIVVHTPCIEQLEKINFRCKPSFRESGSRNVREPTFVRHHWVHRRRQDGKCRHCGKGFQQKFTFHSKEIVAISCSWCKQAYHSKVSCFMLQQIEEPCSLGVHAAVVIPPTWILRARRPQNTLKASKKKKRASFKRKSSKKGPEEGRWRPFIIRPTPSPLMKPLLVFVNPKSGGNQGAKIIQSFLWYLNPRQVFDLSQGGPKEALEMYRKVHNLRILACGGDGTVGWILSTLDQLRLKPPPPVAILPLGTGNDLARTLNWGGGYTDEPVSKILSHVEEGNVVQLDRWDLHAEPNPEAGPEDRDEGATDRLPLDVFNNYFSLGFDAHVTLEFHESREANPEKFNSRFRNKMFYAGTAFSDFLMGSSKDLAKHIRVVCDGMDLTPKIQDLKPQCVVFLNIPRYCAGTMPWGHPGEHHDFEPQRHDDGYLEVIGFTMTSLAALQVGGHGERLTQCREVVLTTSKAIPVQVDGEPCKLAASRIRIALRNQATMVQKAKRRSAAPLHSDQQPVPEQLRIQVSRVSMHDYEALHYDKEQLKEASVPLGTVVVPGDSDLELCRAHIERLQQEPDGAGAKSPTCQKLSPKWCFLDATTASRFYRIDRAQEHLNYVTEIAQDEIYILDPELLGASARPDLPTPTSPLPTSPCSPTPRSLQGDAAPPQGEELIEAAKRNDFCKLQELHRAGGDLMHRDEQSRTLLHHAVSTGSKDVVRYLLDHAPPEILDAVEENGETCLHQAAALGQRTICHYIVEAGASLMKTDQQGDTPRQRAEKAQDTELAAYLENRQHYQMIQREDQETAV
Sequence of DGKα (P23743 whole entry): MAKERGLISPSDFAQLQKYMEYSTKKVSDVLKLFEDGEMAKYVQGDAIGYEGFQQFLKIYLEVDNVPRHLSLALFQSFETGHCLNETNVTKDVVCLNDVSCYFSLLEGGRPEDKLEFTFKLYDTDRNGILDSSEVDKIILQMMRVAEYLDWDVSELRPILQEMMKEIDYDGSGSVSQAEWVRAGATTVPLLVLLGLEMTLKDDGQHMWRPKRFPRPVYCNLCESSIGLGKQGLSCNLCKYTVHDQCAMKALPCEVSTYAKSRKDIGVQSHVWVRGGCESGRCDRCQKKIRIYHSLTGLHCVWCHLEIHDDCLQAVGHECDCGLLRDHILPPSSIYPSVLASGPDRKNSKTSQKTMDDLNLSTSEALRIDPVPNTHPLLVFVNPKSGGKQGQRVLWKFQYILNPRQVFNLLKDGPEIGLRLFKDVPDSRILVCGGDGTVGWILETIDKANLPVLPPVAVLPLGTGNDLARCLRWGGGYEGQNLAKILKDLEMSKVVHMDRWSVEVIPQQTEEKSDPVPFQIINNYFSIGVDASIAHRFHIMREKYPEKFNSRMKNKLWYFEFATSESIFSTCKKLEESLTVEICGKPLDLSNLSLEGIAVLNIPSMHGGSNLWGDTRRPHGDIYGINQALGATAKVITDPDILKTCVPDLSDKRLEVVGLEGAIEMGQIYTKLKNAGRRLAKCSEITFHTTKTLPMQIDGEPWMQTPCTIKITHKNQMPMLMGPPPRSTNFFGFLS

As for `CC[C@@H]1CN(c2nc(=O)n(C)c3c2nnn3C[C@H]2CCCO2)[C@@H](C)CN1C(CC(C)C)c1ccc(Cl)cc1` (single isomer, unassigned) [Example 20], the pIC50 on DGKα and at DGKζ was no less than 8.00 in each case.
As to `CC[C@@H]1CN(c2nc(=O)n(C)c3c2nc(C)n3C[C@@H]2CCCO2)[C@@H](C)CN1[C@H](C)c1ccc(C(F)(F)F)cc1` [Example 62, 6-((2S,5R)-5-ethyl-2-methyl-4-((R)-1-(4-(trifluoromethyl)phenyl)ethyl)piperazin-1-yl)-3,8-dimethyl-9-(((S)-tetrahydrofuran-2-yl)methyl)-3,9-dihydro-2H-purin-2-one], the pIC50 at DGKα and on DGKζ was no less than 8.00 in each case.
With `CC[C@@H]1CN(c2nc(=O)[nH]c3c2nc(C)n3C[C@@H]2CCCO2)[C@@H](C)CN1C(c1ccc(F)cc1)c1ccc(F)cc1` [Example 4, 6-((2S,5R)-4-(Bis(4-fluorophenyl)methyl)-5-ethyl-2-methylpiperazin-1-yl)-8-methyl-9-(((S)-tetrahydrofuran-2-yl)methyl)-3,9-dihydro-2H-purin-2-one], the pIC50 at DGKα and on DGKζ was no less than 8.00 in each case.
On to `CC[C@@H]1CN(c2nc(=O)n(C)c3c2nnn3C[C@H]2CCCO2)[C@@H](C)CN1[C@@H](c1ccc(Cl)cc1)[C@@H]1CC1(F)F` [Example 23, 7-((2S,5R)-4-((R)-(4-chlorophenyl)((S)-2,2-difluorocyclopropyl)methyl)-5-ethyl-2-methylpiperazin-1-yl)-4-methyl-3-(((R)-tetrahydrofuran-2-yl)methyl)-3,4-dihydro-5H-[1,2,3]triazolo[4,5-d]pyrimidin-5-one], for which the pIC50 at DGKα and at DGKζ was no less than 8.00 each time.
As to `CC[C@@H]1CN(c2nc(=O)n(C)c3c2nc(C)n3C[C@H]2OCC[C@@H]2O)[C@@H](C)CN1C(c1ccc(C(F)(F)F)cc1)C1CC(F)(F)C1` (single isomer, unassigned) [Example 68], the pIC50 at DGKα and on DGKζ was no less than 8.00 in each case.
Consider `CC[C@@H]1CN(c2nc(=O)n(C)c3c2nnn3C[C@H]2CCCO2)[C@@H](C)CN1C(c1ccc(C(F)(F)F)cc1)C1CC(F)(F)C1` (stereo partly drawn) [Example 44, 7-((2S,5R)-4-((3,3-Difluorocyclobutyl)(4-(trifluoromethyl)phenyl)methyl)-5-ethyl-2-methylpiperazin-1-yl)-4-methyl-3-(((R)-tetrahydrofuran-2-yl)methyl)-3,4-dihydro-5H-[1,2,3]triazolo[4,5-d]pyrimidin-5-one], for which the pIC50 at DGKα and on DGKζ was no less than 8.00 in each case.
For the compound `CC(C)CC(c1ccc(Cl)cc1)N1C[C@H](C)N(c2nc(=O)n(C)c3c2nnn3C[C@H]2CCCO2)C[C@H]1C` (single isomer, unassigned) [Example 18], the negative-log IC50 (pIC50) at DGKα and at DGKζ was no less than 8.00 each time.
On to `C[C@@H]1CN(c2nc(=O)n(C)c3c2c(F)cn3C[C@@H]2CCCO2)[C@@H](C)CN1C(c1ccc(F)cc1)c1ccc(F)cc1` [Example 8, 4-((2S,5R)-4-(Bis(4-fluorophenyl)methyl)-2,5-dimethylpiperazin-1-yl)-5-fluoro-1-methyl-7-(((S)-tetrahydrofuran-2-yl)methyl)-1,7-dihydro-2H-pyrrolo[2,3-d]pyrimidin-2-one], for which the pIC50 at DGKα and at DGKζ was no less than 7.00 each time.
With `CC[C@@H]1CN(c2nc(=O)n(C)c3c2nc(C)n3C[C@@H]2CCCO2)[C@@H](C)CN1C(c1ccc(C(F)(F)F)c(F)c1)C(C)C` (single isomer, unassigned) [Example 46], the pIC50 on DGKα and at DGKζ was no less than 8.00 throughout.
With `Cc1nc2c(N3C[C@@H](CO)N(C(c4ccc(F)cc4)c4ccc(F)cc4)C[C@@H]3C)nc(=O)n(C)c2n1C[C@@H]1CCCO1` [Example 3, 6-((2S,5S)-4-(Bis(4-fluorophenyl)methyl)-5-(hydroxymethyl)-2-methylpiperazin-1-yl)-3,8-dimethyl-9-(((S)-tetrahydrofuran-2-yl)methyl)-3,9-dihydro-2H-purin-2-one], the pIC50 at DGKα and on DGKζ was no less than 8.00 each time.
As to `CC[C@@H]1CN(c2nc(=O)n(C)c3c2nnn3C[C@H]2CCCO2)[C@@H](C)CN1[C@H](CC)c1ccc(C(F)(F)F)cc1` [Example 31, 7-((2S,5R)-5-ethyl-2-methyl-4-((R)-1-(4-(trifluoromethyl)phenyl)propyl)piperazin-1-yl)-4-methyl-3-(((R)-tetrahydrofuran-2-yl)methyl)-3,4-dihydro-5H-[1,2,3]triazolo[4,5-d]pyrimidin-5-one], the pIC50 on DGKα and on DGKζ was no less than 8.00 in each case.
On to `Cc1nc2c(N3C[C@@H](C)N(C(c4ccc(C(F)(F)F)cc4)C4CC(F)(F)C4)C[C@@H]3C)cc(=O)n(C)c2n1C[C@@H]1CCCO1` (stereo partly drawn) [Example 40, 7-((2S,5R)-4-((3,3-Difluorocyclobutyl)(4-(trifluoromethyl)phenyl)methyl)-2,5-dimethylpiperazin-1-yl)-2,4-dimethyl-3-(((S)-tetrahydrofuran-2-yl)methyl)-3,4-dihydro-5H-imidazo[4,5-b]pyridin-5-one], for which the pIC50 on DGKα and on DGKζ was no less than 7.00 in each case.
As for `Cc1nc2c(N3C[C@@H](C)N([C@H](c4ccc5ccc(C(F)(F)F)cc5n4)C(C)C)C[C@@H]3C)nc(=O)n(C)c2n1C[C@@H]1CCCO1` [Example 50, 6-((2S,5R)-2,5-dimethyl-4-((S)-2-methyl-1-(7-(trifluoromethyl)quinolin-2-yl)propyl)piperazin-1-yl)-3,8-dimethyl-9-(((S)-tetrahydrofuran-2-yl)methyl)-3,9-dihydro-2H-purin-2-one], the pIC50 on DGKα and on DGKζ was no less than 8.00 in each case.
For the compound `Cc1nc2c(N3C[C@@H](C)N(C(c4ccc(C(F)(F)F)cc4)C4CC(F)(F)C4)C[C@@H]3C)nc(=O)n(C)c2n1C[C@@H]1CCCO1` (single isomer, unassigned) [Example 15], the pIC50 at DGKα and at DGKζ was no less than 8.00 each time.
As for `C[C@@H]1CN(c2nc(=O)n(C)c3c2nnn3C[C@@H]2CCCO2)[C@@H](C)CN1C(c1ccc(F)cc1)c1ccc(F)cc1` [Example 12, 7-((2S,5R)-4-(Bis(4-fluorophenyl)methyl)-2,5-dimethylpiperazin-1-yl)-4-methyl-3-(((S)-tetrahydrofuran-2-yl)methyl)-3,4-dihydro-5H-[1,2,3]triazolo[4,5-d]pyrimidin-5-one], the pIC50 on DGKα and on DGKζ was no less than 8.00 in each case.
Take `CC[C@@H]1CN(c2nc(=O)n(C)c3c2nnn3C[C@H]2CCCO2)[C@@H](C)CN1C(c1ccc(Cl)cc1)C1CC(F)(F)C1` (stereo partly drawn) [Example 45, 7-((2S,5R)-4-((4-Chlorophenyl)(3,3-difluorocyclobutyl)methyl)-5-ethyl-2-methylpiperazin-1-yl)-4-methyl-3-(((R)-tetrahydrofuran-2-yl)methyl)-3,4-dihydro-5H-[1,2,3]triazolo[4,5-d]pyrimidin-5-one]: the pIC50 at DGKα and on DGKζ was no less than 8.00 in each case.
On to `Cc1nc2c(N3C[C@@H](C)N(C(c4ccc(F)cc4)c4ccc(F)cc4)C[C@@H]3C)nc(=O)[nH]c2n1C[C@@H]1CCCO1` [Example 1, 6-((2S,5R)-4-(Bis(4-fluorophenyl)methyl)-2,5-dimethylpiperazin-1-yl)-8-methyl-9-(((S)-tetrahydrofuran-2-yl)methyl)-3,9-dihydro-2H-purin-2-one], for which the pIC50 on DGKα was no less than 8.00; on DGKζ it was no less than 7.00.
Take `C[C@@H]1CN(c2nc(=O)n(C)c3c2ncn3CC2(O)CCCC2)[C@@H](C)CN1C(c1ccc(Cl)cc1)C1CC(F)(F)C1` (single isomer, unassigned) [Example 66]: the pIC50 at DGKα and on DGKζ was no less than 8.00 throughout.
On to `Cc1nc2c(N3C[C@@H](C)N([C@H](c4ccc5cc(F)ccc5n4)C(C)C)C[C@@H]3C)nc(=O)n(C)c2n1C[C@@H]1CCCO1` [Example 47, 6-((2S,5R)-4-((S)-1-(6-Fluoroquinolin-2-yl)-2-methylpropyl)-2,5-dimethylpiperazin-1-yl)-3,8-dimethyl-9-(((S)-tetrahydrofuran-2-yl)methyl)-3,9-dihydro-2H-purin-2-one], for which the pIC50 at DGKα and on DGKζ was no less than 8.00 each time.
Consider `CC[C@@H]1CN(c2nc(=O)n(C)c3c2nnn3C[C@H]2CCCO2)[C@@H](C)CN1[C@H](c1ccc(Cl)cc1)[C@@H]1CC1(F)F` [Example 22, 7-((2S,5R)-4-((S)-(4-Chlorophenyl)((S)-2,2-difluorocyclopropyl)methyl)-5-ethyl-2-methylpiperazin-1-yl)-4-methyl-3-(((R)-tetrahydrofuran-2-yl)methyl)-3,4-dihydro-5H-[1,2,3]triazolo[4,5-d]pyrimidin-5-one], for which the pIC50 is no less than 8.00 at DGKα and no less than 7.00 at DGKζ.
For `CC[C@@H]1CN(c2nc(=O)n(C)c3c2nc(C)n3C[C@H]2OCC[C@@H]2O)[C@@H](C)CN1[C@H](CC)c1ccc(C(F)(F)F)cc1` [Example 70, 6-((2S,5R)-5-ethyl-2-methyl-4-((R)-1-(4-(trifluoromethyl)phenyl)propyl)piperazin-1-yl)-9-(((2R,3S)-3-hydroxytetrahydrofuran-2-yl)methyl)-3,8-dimethyl-3,9-dihydro-2H-purin-2-one], in that order: no less than 8.00 and no less than 8.00.
Turning to `Cc1nc2c(N3C[C@@H](C)N([C@H](c4ccc(C(F)F)c(F)c4)C(C)C)C[C@@H]3C)nc(=O)n(C)c2n1C[C@@H]1CCCO1` [Example 55, 6-((2S,5R)-4-((S)-1-(4-(Difluoromethyl)-3-fluorophenyl)-2-methylpropyl)-2,5-dimethylpiperazin-1-yl)-3,8-dimethyl-9-(((S)-tetrahydrofuran-2-yl)methyl)-3,9-dihydro-2H-purin-2-one], the pIC50 at DGKα and at DGKζ was no less than 8.00 throughout.
`C[C@@H]1CN(c2nc(=O)n(C)c3c2ncn3C[C@@H]2CCCO2)[C@@H](C)CN1C(c1ccc(F)cc1)c1ccc(F)cc1` [Example 10, 6-((2S,5R)-4-(Bis(4-fluorophenyl)methyl)-2,5-dimethylpiperazin-1-yl)-3-methyl-9-(((S)-tetrahydrofuran-2-yl)methyl)-3,9-dihydro-2H-purin-2-one]: the pIC50 on DGKα and on DGKζ was no less than 8.00 throughout.

The pIC50 is −log10 of the IC50, conventionally taken in molar units.
